# Test results reported in patent US20230085307A1, “PYRIDAZINONE COMPOUND AND HERBICIDE” (NISSAN CHEMICAL CORPORATION, priority 2019, published 2023).
# Columns and labels:
# barnyard grass [1] = experiment: Test Example 5: herbicidal effect by foliage application, plastic box (Table 20, symbol H); format: in vivo, barnyard grass (Echinochloa crus-galli)
# Summary of the method: (§1)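 Plants were sown into sterilized diluvial soil under about 1.5 cm cover and kept in a greenhouse at 25° C. to 30° C. Fourteen days on, foliage received an even spray of the diluted emulsion. Herbicidal or crop effect was judged three weeks afterwards.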
# Chinese sprangletop = experiment: Test Example 3: herbicidal effect by foliage application, Wagner pot (Table 18, symbol D); format: in vivo, chinese sprangletop (Leptochloa chinensis); conditions: 320 g/ha
# Summary of the method: (§2)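 Plants were sown in alluvial soil held under 0.1–0.5 cm standing water and grown 14 days in a greenhouse at 25–30 °C. An emulsifiable formulation, water-diluted to the set dose, was then sprayed onto the foliage, and effects were scored three weeks later using previously defined criteria.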
# Italian ryegrass [2] = experiment: Test Example 4: herbicidal effect by soil treatment (Table 19, symbol K); format: in vivo, Italian ryegrass (Lolium multiflorum); conditions: amount of applied herbicide 320 g/ha
# Summary of the method: (§3)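 Pre-emergence style soil spray: seeds under ~1.5 cm sterilized diluvial soil received a uniform coat of emulsion diluted to the predetermined herbicide amount. Greenhouse 25–30° C; readout at week three on previously defined criteria.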
# southern crabgrass [3] = experiment: Test Example 4: herbicidal effect by soil treatment (Table 19, symbol F); format: in vivo, southern crabgrass (Digitaria ciliaris); conditions: amount of applied herbicide 320 g/ha
# Summary of the method: as §3
# lambsquarters [4] = experiment: Test Example 4: herbicidal effect by soil treatment (Table 19, symbol O); format: in vivo, lambsquarters (Chenopodium album); conditions: amount of applied herbicide 320 g/ha
# Summary of the method: as §3
# rice flat sedge = experiment: Test Example 3: herbicidal effect by foliage application, Wagner pot (Table 18, symbol E); format: in vivo, rice flat sedge (Cyperus iria); conditions: 320 g/ha
# Summary of the method: as §2
# Italian ryegrass [5] = experiment: Test Example 5: herbicidal effect by foliage application, plastic box (Table 20, symbol K); format: in vivo, Italian ryegrass (Lolium multiflorum)
# Summary of the method: as §1
# barnyard grass [6] = experiment: Test Example 4: herbicidal effect by soil treatment (Table 19, symbol H); format: in vivo, barnyard grass (Echinochloa crus-galli); conditions: amount of applied herbicide 320 g/ha
# Summary of the method: as §3
# windgrass [7] = experiment: Test Example 5: herbicidal effect by foliage application, plastic box (Table 20, symbol L); format: in vivo, windgrass (Apera spica-venti)
# Summary of the method: as §1
# Japanese bulrush = experiment: Test Example 1: herbicidal activity, application before weed generation under submerged conditions (Table 16, symbol B); format: in vivo, Japanese bulrush (Schoenoplectus juncoides)
# Summary of the method: (§4)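 Emulsion formulation, water-diluted to set dose, was put onto the flooded surface (4 cm depth, alluvial soil) the same day weeds were sown and 2.5-leaf rice transplanted. After 3 weeks at 25-30 °C under glass, each species was rated 0 (≤5% kill) to 5 (≥90% kill).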
# redroot pigweed [8] = experiment: Test Example 5: herbicidal effect by foliage application, plastic box (Table 20, symbol N); format: in vivo, redroot pigweed (Amaranthus retroflexus)
# Summary of the method: as §1
# late watergrass = experiment: Test Example 1: herbicidal activity, application before weed generation under submerged conditions (Table 16, symbol A); format: in vivo, late watergrass (Echinochloa oryzicola)
# Summary of the method: as §4
# chickweed [9] = experiment: Test Example 4: herbicidal effect by soil treatment (Table 19, symbol P); format: in vivo, common chickweed (Stellaria media); conditions: amount of applied herbicide 320 g/ha
# Summary of the method: as §3
# green foxtail [10] = experiment: Test Example 5: herbicidal effect by foliage application, plastic box (Table 20, symbol G); format: in vivo, green foxtail (Setaria viridis)
# Summary of the method: as §1
# chickweed [11] = experiment: Test Example 5: herbicidal effect by foliage application, plastic box (Table 20, symbol P); format: in vivo, common chickweed (Stellaria media)
# Summary of the method: as §1
# windgrass [12] = experiment: Test Example 4: herbicidal effect by soil treatment (Table 19, symbol L); format: in vivo, windgrass (Apera spica-venti); conditions: amount of applied herbicide 320 g/ha
# Summary of the method: as §3
# southern crabgrass [13] = experiment: Test Example 5: herbicidal effect by foliage application, plastic box (Table 20, symbol F); format: in vivo, southern crabgrass (Digitaria ciliaris)
# Summary of the method: as §1
# lambsquarters [14] = experiment: Test Example 5: herbicidal effect by foliage application, plastic box (Table 20, symbol O); format: in vivo, lambsquarters (Chenopodium album)
# Summary of the method: as §1
# blackgrass [15] = experiment: Test Example 4: herbicidal effect by soil treatment (Table 19, symbol J); format: in vivo, blackgrass (Alopecurus myosuroides); conditions: amount of applied herbicide 320 g/ha
# Summary of the method: as §3
# barnyard grass [16] = experiment: Test Example 3: herbicidal effect by foliage application, Wagner pot (Table 18, symbol H); format: in vivo, barnyard grass (Echinochloa crus-galli); conditions: 320 g/ha
# Summary of the method: as §2
# wild oat [17] = experiment: Test Example 4: herbicidal effect by soil treatment (Table 19, symbol I); format: in vivo, wild oat (Avena fatua); conditions: amount of applied herbicide 320 g/ha
# Summary of the method: as §3
# blackgrass [18] = experiment: Test Example 5: herbicidal effect by foliage application, plastic box (Table 20, symbol J); format: in vivo, blackgrass (Alopecurus myosuroides)
# Summary of the method: as §1
# persian speedwell [19] = experiment: Test Example 4: herbicidal effect by soil treatment (Table 19, symbol R); format: in vivo, Persian speedwell (Veronica persica); conditions: amount of applied herbicide 320 g/ha
# Summary of the method: as §3
# wild oat [20] = experiment: Test Example 5: herbicidal effect by foliage application, plastic box (Table 20, symbol I); format: in vivo, wild oat (Avena fatua)
# Summary of the method: as §1
# oval-leafed pondweed = experiment: Test Example 1: herbicidal activity, application before weed generation under submerged conditions (Table 16, symbol C); format: in vivo, oval-leafed pondweed (Monochoria vaginalis)
# Summary of the method: as §4
# velvetleaf [21] = experiment: Test Example 4: herbicidal effect by soil treatment (Table 19, symbol M); format: in vivo, velvetleaf (Abutilon theophrasti); conditions: amount of applied herbicide 320 g/ha
# Summary of the method: as §3
# redroot pigweed [22] = experiment: Test Example 4: herbicidal effect by soil treatment (Table 19, symbol N); format: in vivo, redroot pigweed (Amaranthus retroflexus); conditions: amount of applied herbicide 320 g/ha
# Summary of the method: as §3
# persian speedwell [23] = experiment: Test Example 5: herbicidal effect by foliage application, plastic box (Table 20, symbol R); format: in vivo, Persian speedwell (Veronica persica)
# Summary of the method: as §1
# green foxtail [24] = experiment: Test Example 4: herbicidal effect by soil treatment (Table 19, symbol G); format: in vivo, green foxtail (Setaria viridis); conditions: amount of applied herbicide 320 g/ha
# Summary of the method: as §3
# velvetleaf [25] = experiment: Test Example 5: herbicidal effect by foliage application, plastic box (Table 20, symbol M); format: in vivo, velvetleaf (Abutilon theophrasti)
# Summary of the method: as §1
# [26] = amount of applied herbicide 320 g/ha, foliage application after 14-day growth, evaluated three weeks after application
# [27] = amount of applied herbicide 320 g/ha
# [28] = foliage application, 320 g/ha, three weeks after application
compound,measurement,setting,value
COc1ccccc1-c1sc2c(C)cccc2c1-c1c(O)c(C)nn(C)c1=O [4-106],"Herbicidal effect by foliage application, H: barnyard grass",barnyard grass [1]; [26],1 (Herbicidal rate of 5% or more and less than 20%)
same,herbicidal effect on Chinese sprangletop (D),Chinese sprangletop,0 (Herbicidal rate of 5% or less (almost no effect))
same,"Herbicidal effect by soil treatment, K: Italian ryegrass",Italian ryegrass [2],0 (Herbicidal rate of 5% or less (almost no effect))
same,"Herbicidal effect by soil treatment, F: southern crabgrass",southern crabgrass [3],3 (Herbicidal rate of 40% or more and less than 70%)
same,"Herbicidal effect by soil treatment, O: lambsquarters",lambsquarters [4],1 (Herbicidal rate of 5% or more and less than 20%)
same,herbicidal effect on rice flat sedge (E),rice flat sedge,5 (Herbicidal rate of 90% or more (almost completely withered))
same,"Herbicidal effect by foliage application, K: Italian ryegrass",Italian ryegrass [5]; [26],4 (Herbicidal rate of 70% or more and less than 90%)
same,"Herbicidal effect by soil treatment, H: barnyard grass",barnyard grass [6],0 (Herbicidal rate of 5% or less (almost no effect))
same,"Herbicidal effect by foliage application, L: windgrass",windgrass [7]; [26],5 (Herbicidal rate of 90% or more (almost completely withered))
same,"Herbicidal effect, B: Japanese bulrush",Japanese bulrush; [27],0 (Herbicidal rate of 5% or less (almost no effect))
same,"Herbicidal effect by foliage application, N: redroot pigweed",redroot pigweed [8]; [26],4 (Herbicidal rate of 70% or more and less than 90%)
same,"Herbicidal effect, A: late watergrass",late watergrass; [27],2 (Herbicidal rate of 20% or more and less than 40%)
same,"Herbicidal effect by soil treatment, P: chickweed",chickweed [9],1 (Herbicidal rate of 5% or more and less than 20%)
same,"Herbicidal effect by foliage application, G: green foxtail",green foxtail [10]; [26],0 (Herbicidal rate of 5% or less (almost no effect))
same,"Herbicidal effect by foliage application, P: chickweed",chickweed [11]; [26],5 (Herbicidal rate of 90% or more (almost completely withered))
same,"Herbicidal effect by soil treatment, L: windgrass",windgrass [12],3 (Herbicidal rate of 40% or more and less than 70%)
same,"Herbicidal effect by foliage application, F: southern crabgrass",southern crabgrass [13]; [26],1 (Herbicidal rate of 5% or more and less than 20%)
same,"Herbicidal effect by foliage application, O: lambsquarters",lambsquarters [14]; [26],3 (Herbicidal rate of 40% or more and less than 70%)
same,"Herbicidal effect by soil treatment, J: blackgrass",blackgrass [15],0 (Herbicidal rate of 5% or less (almost no effect))
same,herbicidal effect on barnyard grass (H),barnyard grass [16],4 (Herbicidal rate of 70% or more and less than 90%)
same,"Herbicidal effect by soil treatment, I: wild oat",wild oat [17],0 (Herbicidal rate of 5% or less (almost no effect))
same,"Herbicidal effect by foliage application, J: blackgrass",blackgrass [18]; [26],4 (Herbicidal rate of 70% or more and less than 90%)
same,"Herbicidal effect by soil treatment, R: persian speedwell",persian speedwell [19],1 (Herbicidal rate of 5% or more and less than 20%)
same,"Herbicidal effect by foliage application, I: wild oat",wild oat [20]; [26],2 (Herbicidal rate of 20% or more and less than 40%)
same,"Herbicidal effect, C: oval-leafed pondweed",oval-leafed pondweed; [27],0 (Herbicidal rate of 5% or less (almost no effect))
same,"Herbicidal effect by soil treatment, M: velvetleaf",velvetleaf [21],0 (Herbicidal rate of 5% or less (almost no effect))
same,"Herbicidal effect by soil treatment, N: redroot pigweed",redroot pigweed [22],4 (Herbicidal rate of 70% or more and less than 90%)
same,"Herbicidal effect by foliage application, R: persian speedwell",persian speedwell [23]; [26],5 (Herbicidal rate of 90% or more (almost completely withered))
same,"Herbicidal effect by soil treatment, G: green foxtail",green foxtail [24],1 (Herbicidal rate of 5% or more and less than 20%)
same,"Herbicidal effect by foliage application, M: velvetleaf",velvetleaf [25]; [26],3 (Herbicidal rate of 40% or more and less than 70%)
CCCC(=O)Oc1c(C)nn(C)c(=O)c1-c1c(-c2cc(F)ccc2OC)sc2ccccc12 [1-059],"herbicidal effect grade, H: barnyard grass",barnyard grass [1]; [28],3 (Herbicidal rate of 40% or more and less than 70%)
same,"herbicidal effect on D (Chinese sprangletop), rating 0-5",Chinese sprangletop,1 (Herbicidal rate of 5% or more and less than 20%)
same,"herbicidal effect rating, K: Italian ryegrass",Italian ryegrass [2],1 (Herbicidal rate of 5% or more and less than 20%)
same,"herbicidal effect rating, F: southern crabgrass",southern crabgrass [3],0 (Herbicidal rate of 5% or less (almost no effect))
same,"herbicidal effect rating, O: lambsquarters",lambsquarters [4],3 (Herbicidal rate of 40% or more and less than 70%)
same,"herbicidal effect on E (rice flat sedge), rating 0-5",rice flat sedge,5 (Herbicidal rate of 90% or more (almost completely withered))
same,"herbicidal effect grade, K: Italian ryegrass",Italian ryegrass [5]; [28],2 (Herbicidal rate of 20% or more and less than 40%)
same,"herbicidal effect rating, H: barnyard grass",barnyard grass [6],3 (Herbicidal rate of 40% or more and less than 70%)
same,"herbicidal effect grade, L: windgrass",windgrass [7]; [28],4 (Herbicidal rate of 70% or more and less than 90%)
same,Herbicidal effect on B: Japanese bulrush (grade 0-5),Japanese bulrush; 320 g/ha applied herbicide,2 (Herbicidal rate of 20% or more and less than 40%)
same,"herbicidal effect grade, N: redroot pigweed",redroot pigweed [8]; [28],3 (Herbicidal rate of 40% or more and less than 70%)
same,Herbicidal effect on A: late watergrass (grade 0-5),late watergrass; 320 g/ha applied herbicide,3 (Herbicidal rate of 40% or more and less than 70%)
same,"herbicidal effect rating, P: chickweed",chickweed [9],0 (Herbicidal rate of 5% or less (almost no effect))
same,"herbicidal effect grade, G: green foxtail",green foxtail [10]; [28],2 (Herbicidal rate of 20% or more and less than 40%)
same,"herbicidal effect grade, P: chickweed",chickweed [11]; [28],5 (Herbicidal rate of 90% or more (almost completely withered))
same,"herbicidal effect rating, L: windgrass",windgrass [12],3 (Herbicidal rate of 40% or more and less than 70%)
same,"herbicidal effect grade, F: southern crabgrass",southern crabgrass [13]; [28],0 (Herbicidal rate of 5% or less (almost no effect))
same,"herbicidal effect grade, O: lambsquarters",lambsquarters [14]; [28],3 (Herbicidal rate of 40% or more and less than 70%)
same,"herbicidal effect rating, J: blackgrass",blackgrass [15],3 (Herbicidal rate of 40% or more and less than 70%)
same,"herbicidal effect on H (barnyard grass), rating 0-5",barnyard grass [16],3 (Herbicidal rate of 40% or more and less than 70%)
same,"herbicidal effect rating, I: wild oat",wild oat [17],0 (Herbicidal rate of 5% or less (almost no effect))
same,"herbicidal effect grade, J: blackgrass",blackgrass [18]; [28],3 (Herbicidal rate of 40% or more and less than 70%)
same,"herbicidal effect rating, R: persian speedwell",persian speedwell [19],0 (Herbicidal rate of 5% or less (almost no effect))
same,"herbicidal effect grade, I: wild oat",wild oat [20]; [28],2 (Herbicidal rate of 20% or more and less than 40%)
same,Herbicidal effect on C: oval-leafed pondweed (grade 0-5),oval-leafed pondweed; 320 g/ha applied herbicide,1 (Herbicidal rate of 5% or more and less than 20%)
same,"herbicidal effect rating, M: velvetleaf",velvetleaf [21],0 (Herbicidal rate of 5% or less (almost no effect))
same,"herbicidal effect rating, N: redroot pigweed",redroot pigweed [22],0 (Herbicidal rate of 5% or less (almost no effect))
same,"herbicidal effect grade, R: persian speedwell",persian speedwell [23]; [28],2 (Herbicidal rate of 20% or more and less than 40%)
same,"herbicidal effect rating, G: green foxtail",green foxtail [24],3 (Herbicidal rate of 40% or more and less than 70%)
same,"herbicidal effect grade, M: velvetleaf",velvetleaf [25]; [28],2 (Herbicidal rate of 20% or more and less than 40%)
